We go through 3 compounds from patent US7285543B2, “Purine inhibitors of fructose-1,6-bisphosphatase” (Metabasis Therapeutics, Inc., priority 1997, dated 2007).

In general, EC50 refers to the concentration needed to bring the measured effect to its halfway point. Read a high EC50 as weaker potency.

A value given as a limit tells only on which side of the number the result lay.

Data set [1] deals with T1, Glycogen Phosphorylase (rabbit muscle) (Oryctolagus cuniculus, UniProt P00489).
T1 sequence (P00489 2-843 limits assumed): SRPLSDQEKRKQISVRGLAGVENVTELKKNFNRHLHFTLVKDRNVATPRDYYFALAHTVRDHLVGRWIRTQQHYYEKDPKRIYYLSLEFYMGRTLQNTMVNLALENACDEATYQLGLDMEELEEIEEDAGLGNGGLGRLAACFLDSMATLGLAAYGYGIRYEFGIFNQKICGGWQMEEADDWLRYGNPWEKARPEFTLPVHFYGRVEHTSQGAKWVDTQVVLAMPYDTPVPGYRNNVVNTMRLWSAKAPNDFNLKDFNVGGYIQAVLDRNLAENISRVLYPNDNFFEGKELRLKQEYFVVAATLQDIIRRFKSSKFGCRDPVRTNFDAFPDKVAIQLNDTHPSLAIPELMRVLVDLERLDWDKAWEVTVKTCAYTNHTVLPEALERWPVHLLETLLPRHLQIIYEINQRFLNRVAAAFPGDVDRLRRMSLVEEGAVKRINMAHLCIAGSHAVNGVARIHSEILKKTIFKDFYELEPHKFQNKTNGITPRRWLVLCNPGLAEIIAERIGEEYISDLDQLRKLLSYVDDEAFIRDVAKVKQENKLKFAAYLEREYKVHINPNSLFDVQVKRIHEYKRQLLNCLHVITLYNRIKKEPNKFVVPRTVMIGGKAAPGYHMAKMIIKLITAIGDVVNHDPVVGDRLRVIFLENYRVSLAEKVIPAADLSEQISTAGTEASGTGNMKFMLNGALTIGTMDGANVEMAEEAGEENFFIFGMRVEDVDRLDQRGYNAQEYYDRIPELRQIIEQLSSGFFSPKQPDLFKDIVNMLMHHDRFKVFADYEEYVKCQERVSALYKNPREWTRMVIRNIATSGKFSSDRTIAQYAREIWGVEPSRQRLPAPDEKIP
In words: AMP site/enzyme selectivity: glycogen phosphorylase.
Experimental: To determine the selectivity of compounds towards FBPase, effects of FBPase inhibitors on 5 key AMP binding enzymes were measured using the assays described below: • Adenosine Kinase: Human adenosine kinase was purified from an E. coli expression system as described by Spychala et al. (Spychala, J., Datta, N. S., Takabayashi, K., Datta, M., Fox, I. H., Gribbin, T., and Mitchell, B. S. Proc. Natl. Acad. Sci. USA 1996, 93, 1232-1237). Activity was measured essentially as described by Yamada et al. (Yamada, Y., Goto, H., Ogasawara, N. Biochim. Biophys. Acta 1988, 660, 36-43.) with a few minor modifications. Assay mixtures contained 50 mM TRIS-maleate buffer, pH 7.0, 0.1% BSA, 1 mM ATP 1 mM MgCl2, 1.0 μM [U-^14C] adenosine (400-600 mCi/mmol) and varying duplicate concentrations of inhibitor. ^14C-AMP was separated from unreacted ^14C-adenosine by absorption to anion exchange paper (Whatman) and quantified by scintillation counting. • Adenosine Monophosphate Deaminase: Porcine heart AMPDA was purified essentially as described by Smiley et al. (Smiley, K. L., Jr, Berry, A. J., and Suelter, C. H. J. Biol. Chem. 1967, 242, 2502-2506) through the phosphocellulose step. Inhibition of AMPDA activity was determined at 37° C. in a 0.1 mL assay mixture containing inhibitor, ˜0.005U AMPDA, 0.1% bovine serum albumin, 10 mM ATP, 250 mM KCl, and 50 mM MOPS at pH 6.5. […]

In the next data set the target is T2, Human adenosine kinase (Homo sapiens, UniProt P55263).
T2 construct: made in house; host or cells: E. coli
T2 sequence (P55263 1-345 isoform P55263-2): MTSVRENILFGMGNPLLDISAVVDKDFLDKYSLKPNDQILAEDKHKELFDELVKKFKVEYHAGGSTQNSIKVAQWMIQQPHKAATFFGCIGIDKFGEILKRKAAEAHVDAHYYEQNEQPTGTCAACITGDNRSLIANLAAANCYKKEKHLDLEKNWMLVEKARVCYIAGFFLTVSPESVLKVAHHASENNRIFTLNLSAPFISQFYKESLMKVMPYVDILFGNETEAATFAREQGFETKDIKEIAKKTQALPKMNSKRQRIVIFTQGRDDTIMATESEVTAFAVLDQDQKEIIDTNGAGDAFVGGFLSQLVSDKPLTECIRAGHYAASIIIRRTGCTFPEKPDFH
In words: AMP site/enzyme selectivity: adenosine kinase. The format is biochemical. Particulars: selectivity table; read-out: Adenosine Kinase (inh.).

The target in another data set is T3, mouse liver FBPase (Mus musculus, UniProt Q9QXD6).
T3 construct: This partially purified fraction was used for enzyme assays; from tissue; host or cells: mouse liver
T3 sequence (Q9QXD6 2-338 limits assumed): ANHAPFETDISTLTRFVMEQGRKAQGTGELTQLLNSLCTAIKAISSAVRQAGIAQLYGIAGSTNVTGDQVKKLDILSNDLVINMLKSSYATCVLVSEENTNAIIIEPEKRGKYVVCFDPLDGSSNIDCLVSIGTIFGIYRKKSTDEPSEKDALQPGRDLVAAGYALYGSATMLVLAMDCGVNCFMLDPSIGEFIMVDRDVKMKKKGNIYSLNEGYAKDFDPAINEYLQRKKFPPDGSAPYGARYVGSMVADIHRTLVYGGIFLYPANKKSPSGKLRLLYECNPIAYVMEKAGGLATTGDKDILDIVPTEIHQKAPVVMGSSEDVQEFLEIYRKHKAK
In words: In vitro inhibition of mouse liver FBPase. The format is biochemical. The method, then: (§1) Mouse liver FBPase was obtained by homogenizing freshly isolated mouse liver in 100 mM Tris-HCl buffer, pH 7.4, containing 1 mM EGTA, and 10% glycerol. […] This fraction was redissolved in the homogenization buffer and desalted on a PD-10 gel filtration column (Biorad) eluted with same. This partially purified fraction was used for enzyme assays. Both rat liver and mouse liver FBPase were assayed as described for human liver FBPase.

The next data set has as its target T4, human liver FBPase (Homo sapiens, UniProt P09467).
T4 construct: made in house; host or cells: E. coli BL21
T4 sequence (P09467 2-338 limits assumed): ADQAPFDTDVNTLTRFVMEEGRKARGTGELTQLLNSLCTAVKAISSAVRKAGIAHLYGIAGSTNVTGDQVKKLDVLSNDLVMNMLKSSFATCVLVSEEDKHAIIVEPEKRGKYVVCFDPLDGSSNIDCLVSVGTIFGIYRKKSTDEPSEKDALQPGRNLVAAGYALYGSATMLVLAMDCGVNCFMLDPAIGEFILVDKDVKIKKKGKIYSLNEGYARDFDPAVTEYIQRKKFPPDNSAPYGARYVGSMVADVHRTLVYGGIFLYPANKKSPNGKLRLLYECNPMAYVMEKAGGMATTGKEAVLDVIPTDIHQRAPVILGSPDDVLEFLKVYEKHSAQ
In words: Inhibition of human liver FBPase (coupled spectrophotometric assay). The format is biochemical.

Data set [2] deals with rat hepatocytes. Briefly: Inhibition of gluconeogenesis (glucose production from lactate/pyruvate) in rat hepatocytes. The format is cell-based. As to conditions: for IC50: from lactate/pyruvate, isolated rat hepatocytes. The method, then:
Hepatocytes were prepared from overnight fasted Sprague-Dawley rats (250-300 g) according to the procedure of Berry and Friend (Berry, M. N., Friend, D. S., J. Cell. Biol. 1969, 43, 506-520) as modified by Groen (Groen, […]., Eur. J. Biochem. 1982, 122, 87-93). […] Incubations were carried out in a 95% oxygen, 5% carbon dioxide atmosphere in closed, 50-mL Falcon tubes submerged in a rapidly shaking water bath (37° C.). After 1 hour, an aliquot (0.25 mL) was removed, transferred to an Eppendorf tube and centrifuged. 50 μl of supernatant was then assayed for glucose content using a Sigma Glucose Oxidase kit as per the manufacturer's instructions.

For another data set, the target named is T5, rat liver FBPase (Rattus norvegicus, UniProt P19112).
T5 construct: made in house; host or cells: E. coli BL21
T5 sequence (P19112 2-363 limits assumed): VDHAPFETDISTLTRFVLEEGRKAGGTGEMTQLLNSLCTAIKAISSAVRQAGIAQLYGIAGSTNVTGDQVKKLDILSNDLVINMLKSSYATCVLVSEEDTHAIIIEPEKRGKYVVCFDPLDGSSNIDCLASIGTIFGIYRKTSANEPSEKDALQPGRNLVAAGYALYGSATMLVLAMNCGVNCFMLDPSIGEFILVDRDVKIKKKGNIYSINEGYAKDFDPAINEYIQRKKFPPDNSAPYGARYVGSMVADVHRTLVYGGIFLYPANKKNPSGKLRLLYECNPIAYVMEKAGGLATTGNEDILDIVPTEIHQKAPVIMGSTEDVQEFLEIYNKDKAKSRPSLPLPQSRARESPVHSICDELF
Briefly: In vitro inhibition of rat liver FBPase. The format is biochemical. The method, then:
as §1

For data set [3], the target named is T6, Adenylate Kinase (rabbit muscle) (Oryctolagus cuniculus, UniProt P00569).
T6 construct: purchased Sigma
T6 sequence (P00569 1-194): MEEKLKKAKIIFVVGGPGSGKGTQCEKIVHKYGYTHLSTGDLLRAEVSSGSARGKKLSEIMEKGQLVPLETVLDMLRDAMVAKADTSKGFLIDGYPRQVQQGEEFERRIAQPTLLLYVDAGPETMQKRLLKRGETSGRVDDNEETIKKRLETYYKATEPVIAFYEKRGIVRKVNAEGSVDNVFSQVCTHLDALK
In words: AMP site/enzyme selectivity: adenylate kinase. The format is biochemical. As to conditions: selectivity table; read-out: Adenylate Kinase (inh.).

Data set [4] in a line: Estimation of the oral bioavailability of prodrugs of phosphonic acids (urinary recovery). The format is in vivo, rat. The method, then: Prodrugs were dissolved in 10% ethanol/90% polyethylene glycol (mw 400) and administered by oral gavage at doses of approximately 20 or 40 mg/kg parent compound equivalents to 6-hour fasted, Sprague Dawley rats (220-240 g). The rats were subsequently placed in metabolic cages and urine was collected for 24 hours. The quantity of parent compound excreted into urine was determined by HPLC analysis. An ODS column eluted with a gradient from potassium phosphate buffer, pH 5.5 to acetonitrile was employed for these measurements. Detection was at 310-325 nm. […] Parent compounds were typically dissolved in dimethyl sulfoxide, and administered via the tail vein in animals that were briefly anesthetized with halothane.

Data set [5] deals with rat hepatocytes. In words: Gluconeogenesis from dihydroxyacetone in rat hepatocytes: glucose production and fructose 1,6-bisphosphate accumulation. The class given is cell-based. As for the experimental part: Isolated rat hepatocytes were prepared as described in Example D and incubated under the identical conditions described except that lactate/pyruvate was replaced by 10 mM dihydroxyacetone, a substrate which feeds into the gluconeogenic pathway at a step just prior to FBPase. Reactions were terminated by removing an aliquot (250 μL) of cell suspension and spinning it through a layer of oil (0.8 mL silicone/mineral oil, 4/1) into a 10% perchloric acid layer (100 μL). […] After thorough mixing and centrifugation, the supernatant was analyzed for glucose content as described in Example D, and also for fructose-1,6-bisphosphate. Fructose-1,6-bisphosphate was assayed spectrophotometrically by coupling its enzymatic conversion to glycerol 3-phosphate to the oxidation of NADH, which was monitored at 340 nm. Reaction mixtures (1 mL) consisted of 200 mM Tris-HCl, pH 7.4, 0.3 mM NADH, 2 units/mL glycerol 3-phosphate dehydrogenase, 2 units/mL triosephosphate isomerase, and 50-100 μl cell extract. After a 30 minute preincubation at 37° C., 1 unit/mL of aldolase was added and the change in absorbance measured until a stable value was obtained. 2 moles of NADH are oxidized in this reaction per mole of fructose-1,6-bisphosphate present in the cell extract.

Data set [6] has as its system 18 hours fasted Sprague-Dawley rats. In words: Blood glucose and liver fructose-1,6-bisphosphate accumulation in fasted rats. Particulars: 20 mgs/kg intraperitoneally. The format is in vivo, rat.
Data set [7] has as its system Zucker Diabetic Fatty rats. Briefly: Inhibition of gluconeogenesis (14C-bicarbonate incorporation into glucose) in Zucker Diabetic Fatty rats. The format is in vivo, rat. As to conditions: 50 mg/kg intraperitoneal. The method, then: Blood samples (0.6 mL) were obtained by cardiac puncture 10 and 20 minutes post tracer injection. Blood (0.5 mL) was diluted into 6 mL deionized water and protein precipitated by addition of 1 mL zinc sulfate (0.3 N) and 1 mL barium hydroxide (0.3 N). The mixture was centrifuged (20 minutes, 1000×g) and 5 mL of the resulting supernatant was then combined with 1 g of a mixed bed ion exchange resin (1 part AG 50W-X8, 100-200 mesh, hydrogen form and 2 parts of AG 1-X8, 100-200 mesh, acetate form) to separate ^14C-bicarbonate from ^14C-glucose. The slurry was shaken at room temperature for four hours and then allowed to settle. An aliquot of the supernatant (0.5 mL) was then counted in 5 mL scintillation cocktail.

Data set [8] has as its system Zucker Diabetic Fatty rats. In words: Blood glucose lowering in Zucker Diabetic Fatty rats. As to conditions: 50 mg/kg intraperitoneal, 2 hours post dose, 24-hour fasted. The format is in vivo, rat. As for the experimental part: Zucker Diabetic Fatty rats purchased at 7 weeks of age were used at age 16 weeks in the 24-hour fasted state. The rats were purchased from Genetics Models Inc. and fed the recommended Purina 5008 diet (6.5% fat). Their fasting hyperglycemia at 24 hours ranged from 150 mg/dL to 310 mg/dL blood glucose.
The stock solution was made up at […] in deionized water and adjusted to neutrality by dropwise, addition of 5 N NaOH. 5 control animals were dosed with saline. Blood glucose was measured at the time of dosing and 2 hours post dose as described in Example F.

A short description of data set [9]: Analysis of drug levels in plasma and liver of rats. The class given is in vivo, rat. Particulars: 20 mgs/kg intraperitoneally, one hour post injection.
For data set [10], the system named is 18 hours fasted Sprague Dawley rats. In words: Blood glucose lowering in fasted rats. The class given is in vivo, rat. As to conditions: 35, 45, and 60 mg/kg intraperitoneally, result in words. The method, then:
The vehicle used for drug administration was dimethylsulfoxide. Blood samples were obtained from the tail vein of conscious animals just prior to injection and then at half-hourly intervals. Blood glucose was measured using a HemoCue Inc. glucose analyzer according to the instructions of the manufacturer.

For data set [11], the system named is rat hepatocytes. As to conditions: 10 μM prodrug, within 10 minutes. As for the experimental part:
Rat hepatocytes were prepared and incubated as in Example D, except that the test compound, 16.4, was added to yield a final concentration of 10 μM. Aliquots of the cell suspension were taken at 0, 5, 10, 20, 30, 45, and 60 minutes after drug exposure.

Turning to `Nc1ncnc2c1nc(-c1ccc(P(=O)(O)O)o1)n2CCc1ccccc1` [Compound 2.1, N^9-(2-phenethyl)-8-(2-(5-phosphono)furanyl)adenine], the EC50 in [1] was above 250 µM. In addition, the IC50 was above 10 µM at Human adenosine kinase; above 20 µM against mouse liver FBPase; 5 µM at human liver FBPase; 90 µM in the data set on rat hepatocytes [2] (Hepatocyte); 100 µM against rat liver FBPase; above 500 µM in [3].

With `CC(C)(C)Cn1c(-c2ccc(P(=O)(O)O)o2)nc2c(N)ncnc21` [Compound 2.7, N^9-neopentyl-8-(2-(5-phosphono)furanyl)adenine], the “intravenous dose recovered in urine” value in data set [4] (intravenous, approximately 10 mg/kg, 24 hours urine) is 76.8%. Moreover, the IC50 with rat hepatocytes [5] (Hepatocyte, 10 mM dihydroxyacetone, rat hepatocytes) was around 5 µM; in the data set on rat hepatocytes [2] (Hepatocyte), 4.5 µM; in data set [3], above 500 µM. In addition, the “accumulation of fructose-1,6-bisphosphate in hepatocytes (FIG. 4B)” value in the data set with rat hepatocytes [5] (dihydroxyacetone, result in words) is listed as “dose-dependent accumulation of fructose-1,6-bisphosphate”. Further, the “elevation of fructose-1,6-bisphosphate levels in liver” value in [6] (one hour post injection) is 10 fold. Also, the “blood glucose after treatment” value in [6] (within one hour, lowered from 82±3) is 28 ± 9.9 mg/dL. Further, in data set [7], the “reduction of incorporation of 14C-bicarbonate into glucose” value turned out to be 75%. Further, the “blood glucose lowered, average” value in data set [8] is recorded as around 20%. The “drug level in liver” value in data set [9] was determined as 51.3 ± 10 nmol/g. In addition, in [9] (Sprague-Dawley, rat, plasma, ip, 20 mg/kg, read-out: drug level in plasma), the concentration at 1 h was 38.5 ± 7 µM.

As to `CC(C)C(=O)OCOP(=O)(OCOC(=O)C(C)C)c1ccc(-c2nc3c(N)ncnc3n2CC(C)(C)C)o1` [Compound 16.4, 6-Amino-9-neopentyl-8-(2-(5-diisobutyrylmethylphosphono)furanyl)-purine], the “oral dose recovered in urine (as parent compound)” value in data set [4] (oral, approximately 20 mg/kg, 24 hours urine) is 6.2%. Moreover, the oral bioavailability entry in data set [4] (rat, estimated from urinary recovery vs intravenous parent) is recorded as “approximately 8%”. The “blood glucose lowering (FIG. 6)” value in data set [10] is on record as “profound glucose lowering”. The “intracellular concentration of compound 2.7” value in the data set on rat hepatocytes [11] was “approximately 80 nmoles/g”. In the data set on rat hepatocytes [2], the IC50 turned out to be 3 µM. Also, the “glucose production in rat hepatocytes (FIG. 11B)” value in the data set on rat hepatocytes [2] (result in words) is “inhibited glucose production”.
